Measured values as given in EP0386603A2, “Bisphenethanolamine” (F. HOFFMANN-LA ROCHE AG, priority 1989, dated 1990).

Experiment: Effect on oxygen consumption in fasted rats (metabolic cages)
Assay type: in vivo, Albinoratten
Settings: placebo-corrected; for Sauerstoffverbrauch 1. bis 3. Stunde: mean of hours 1-3 after dosing; for Sauerstoffverbrauch 1. bis 12. Stunde: mean of hours 1-12 after dosing
Procedure: Wirkung auf den Sauerstoffverbrauch
Gruppen von 6 männlichen Albinoratten im Gewicht von 160-180 g wurden nach 24 Stunden Fasten in Stoffwechselkäfige gesetzt. Die Käfige wurden mit konstant 6 Liter Raumluft/Minute, die bei einem Taupunkt von 11°C äquilibriert wurden belüftet. Von der Abluft wurde nach erneuter Aequilibrierung während Perioden von jeweils 14 Minuten Proben gesammelt und der Sauerstoff- und CO₂-Gehalt analysiert. Nach einer Anpassungszeit von 4 Stunden erhielten die Tiere entweder Placebo (5% Gummi arabicum) oder die Testsubstanz, nämlich BAP (suspendiert in 5% Gummi arabicum) per os oder intraperitoneal. Danach wurden 12 Stunden lang die Bestimmungen durchgeführt. In der nachfolgenden Tabelle ist der gemittelte Sauerstoffverbrauch nach Medikation während der ersten 3 Stunden und der gesamten Versuchsdauer (12 Stunden) als Prozentsatz des Sauerstoffverbrauchs der Anpassungsperiode (100%) angegeben, wobei entsprechende Korrekturen für Aenderungen in der Placebo-Gruppe berücksichtigt wurden, Tabelle

## OCCOc1ccc(CCN(C[C@H](O)c2cccc(Cl)c2)C[C@H](O)c2cccc(Cl)c2)cc1 [BAP, 4-[2-[Bis[(R)-β-hydroxy-3-chlorphenäthyl]amino]äthyl]phenoxyäthanol]
0,3 µM/kg i.p.
  Sauerstoffverbrauch 1. bis 3. Stunde: 134 % vom Wert der Vorperiode
  Sauerstoffverbrauch 1. bis 12. Stunde: 108 % vom Wert der Vorperiode
0,3 µM/kg p.os
  Sauerstoffverbrauch 1. bis 3. Stunde: 114 % vom Wert der Vorperiode
  Sauerstoffverbrauch 1. bis 12. Stunde: 105 % vom Wert der Vorperiode
1 µM/kg i.p.
  Sauerstoffverbrauch 1. bis 3. Stunde: 172 % vom Wert der Vorperiode
  Sauerstoffverbrauch 1. bis 12. Stunde: 121 % vom Wert der Vorperiode
1 µM/kg p.os
  Sauerstoffverbrauch 1. bis 3. Stunde: 156 % vom Wert der Vorperiode
  Sauerstoffverbrauch 1. bis 12. Stunde: 122 % vom Wert der Vorperiode
3 µM/kg i.p.
  Sauerstoffverbrauch 1. bis 3. Stunde: 174 % vom Wert der Vorperiode
  Sauerstoffverbrauch 1. bis 12. Stunde: 134 % vom Wert der Vorperiode
3 µM/kg p.os
  Sauerstoffverbrauch 1. bis 3. Stunde: 179 % vom Wert der Vorperiode
  Sauerstoffverbrauch 1. bis 12. Stunde: 137 % vom Wert der Vorperiode
10 µM/kg i.p.
  Sauerstoffverbrauch 1. bis 3. Stunde: 186 % vom Wert der Vorperiode
  Sauerstoffverbrauch 1. bis 12. Stunde: 154 % vom Wert der Vorperiode
10 µM/kg p.os
  Sauerstoffverbrauch 1. bis 3. Stunde: 191 % vom Wert der Vorperiode
  Sauerstoffverbrauch 1. bis 12. Stunde: 157 % vom Wert der Vorperiode
